Article PMC7009786 (ACS biomaterials science & engineering, 2018)

Assays:
TOV-21G cells = assay: Cell viability after 72 h incubation; assay type: cell-based; conditions: TOV-21G (Pt-sensitive), 56.6 μM, mean of N=3, Pt-NLS purity 87%
[1] = after 150 days; cited from earlier work
ES-2 cells = assay: Cell viability after 72 h incubation; assay type: cell-based; conditions: ES-2 (Pt-sensitive), 18.4 μM, mean of N=3, Pt-NLS purity 87%
[2] = test system: ovarian cancer-derived cell lines; assay type: cell-based

Compound	decrease of cell viability (TOV-21G cells)	hydrolysed species [1]	decrease of cell viability (ES-2 cells)	cytotoxicity in vitro (in words) [2]
N.N.O=C([O-])C1(C(=O)[O-])CCC1.[Pt+2] [carboplatin, Carboplatin]	40%	3%	20%	
O=C1[O][Pt]2([NH][C@@H]3CCCC[C@H]3[NH]2)[O]C1=O [oxaliplatin]		3%		
PKKKRKV [Pt-NLS hybrid]	~ 50%		~ 30%	high cytotoxicity, significantly superior to carboplatin
